Test results: article PMC3242765, “Inhibitors of Alphavirus Entry and Replication Identified with a Stable Chikungunya Replicon Cell Line and Virus-Based Assays” (PLoS ONE, 2011)
Read-outs that look alike come from different tables or passages of the source.

How the values were obtained:
[1] = system: BHK cells; test: Cell viability ATP assay, BHK cells; type: cell-based, hamster; settings: read-out: Cell viability IC50
[2] = system: SFV-Rluc; settings: for IC50: read-out: SFV IC50
[3] = system: SFV; test: CPE reduction assay, SFV (WST-1); type: cell-based, Semliki Forest virus (SFV); settings: read-out: SFV IC50 (CPE reduction)
[4] = system: CHIKV replicon; test: microbe, parasite or virus in culture; type: cell-based, Chikungunya virus (CHIKV)
[5] = system: SFV; test: Viral yield analysis using a plaque assay; type: cell-based, Semliki Forest virus (SFV); settings: for Decrease of SFV titer versus untreated control: 50 µM compound, MOI 0.01, 16 h; for SFV yield: BHK cells, MOI 0.01, 50 µM compound, 16 h, untreated control 1.4×10^9 PFU/ml
[6] = system: BHK-CHIKV-NCT cells; test: Cell viability ATP assay, BHK-CHIKV-NCT cells; type: cell-based, hamster; settings: Mesocricetus auratus, 48 h, read-out: Cell viability IC50, ATP assay, 48 h exposure of BHK-CHIKV-NCT cells, up to 200 µM
[7] = system: SINV; test: CPE reduction assay, SINV (WST-1); type: cell-based, Sindbis virus (SINV); settings: read-out: SINV IC50 (CPE reduction)
[8] = system: SFV-Rluc; test: microbe, parasite or virus in culture; settings: Semliki Forest virus, BHK, 14 h, read-out: SFV IC50
[9] = system: SFVts9-Rluc; type: cell-based, Semliki Forest virus (SFV)
[10] = system: CHIKV-Rluc; test: microbe, parasite or virus in culture; type: cell-based, Chikungunya virus (CHIKV); settings: read-out: CHIKV-Rluc IC50
[11] = Mesocricetus auratus, BHK, 48 h
[12] = Semliki Forest virus, BHK, 22 h
[13] = Chikungunya virus, 48 h, read-out: EGFP IC50
[14] = Chikungunya virus, 48 h, read-out: Rluc IC50

Row | Compound | IC50 [1, 11] | IC50 [3, 12] | SFV yield [5] | IC50 ([7]; Sindbis virus, BHK, 24 h) | IC50 [8] | Effect on SFV entry (Rluc activity) [9] | SFV replication % left (surviving fraction, remaining percentage of SFV replication) [2] | CHIKV replicon % left [4] | SI (selectivity index) [2] | IC50 ([10]; Chikungunya virus, BHK, 16 h) | further results
1 | NC(=O)c1ncn([C@@H]2O[C@H](CO)[C@@H](O)[C@H]2O)n1 [Ribavirin] | > 200 µM | 28.1 µM | 2.1×10^8 PFU/ml | 51.8 µM | ~100 µM |  |  |  |  |  | IC50 [2]: 95.1 µM; Change of replicon IC50 with guanosine supplementation [4]: increased by at least two orders of magnitude; IC50 [4, 13]: 8.8 µM; IC50 [4, 14]: 25.4 µM; Decrease of SFV titer versus untreated control [5]: approximately one order of magnitude; IC50 [6]: > 200 µM
2 | CSc1ccc2c(c1)N(CCC1CCCCN1C)c1ccccc1S2 (stereo not shown) [Thioridazine, reference compound] |  |  | 6.8×10^8 PFU/ml |  |  | decreased the Rluc activity | 11.6% | 95.4% |  |  | 
3 | CN1CCC(CN2c3ccccc3Sc3ccccc32)C1 (stereo not shown) [Methdilazine] | 63.8 µM |  |  |  | 11.3 µM | decreased the Rluc activity | 22.5% | 19.1% | 5.6 | 84.5 µM | 
4 | OCCN1CCN(CCCN2c3ccccc3Sc3ccc(Cl)cc32)CC1 [Perphenazine] | 155 µM |  |  |  | 25.1 µM | decreased the Rluc activity | 10.6% | 88.1% | 6.2 | 48.1 µM | 
5 | CCN(CC)C(C)CN1c2ccccc2Sc2ccccc21 (stereo not shown) [Ethopropazine] | 167 µM | 17.1 µM | 8.1×10^8 PFU/ml | 21.4 µM | 16 µM | decreased the Rluc activity |  |  | 10.4 | 61.5 µM | 
6 | Oc1cccc(O)c1O [Pyrogallol] | > 200 µM | > 200 µM | 1.1×10^9 PFU/ml | > 200 µM | 18.7 µM |  | 22.7% | 89.2% | >10.7 |  | 
7 | O=C(O)c1ccc(O)c(O)c1 [Protocatechuic acid] | > 200 µM | > 200 µM | 2.4×10^9 PFU/ml | > 200 µM | 8 µM |  | 21.1% | 105.4% | >25.0 |  | 
8 | Nc1ncnc2c1ncn2[C@@H]1O[C@H](CO)[C@@H](N)[C@H]1O [3′-NH2-3′-deoxyadenosine, 3′-amino-3′-deoxyadenosine] | 174 µM | 17.5 µM | 2.7×10^7 PFU/ml | 23.4 µM | 16.2 µM |  |  |  | 10.7 |  | IC50 [4, 13]: 34 µM; IC50 [4, 14]: 62.4 µM; Decrease of SFV titer versus untreated control [5]: two orders of magnitude; IC50 [6]: 187 µM
9 | CN(C)CCCN1c2ccccc2Sc2cccnc21 [Prothipendyl] | > 200 µM | 34.2 µM | 4.0×10^8 PFU/ml | 46.5 µM | 8.2 µM |  |  |  | >24.4 | 97.3 µM | IC50 [4, 13]: 135 µM; IC50 [4, 14]: 93.3 µM; IC50 [6]: 186 µM
10 | COc1cc(C2Oc3cc([C@H]4Oc5cc(O)cc(O)c5C(=O)[C@@H]4O)ccc3OC2CO)ccc1O (stereo partly shown) [Silybin] | > 200 µM | 9.6 µM | 3.7×10^8 PFU/ml | 22.6 µM | 16.4 µM | None of the other compounds, including the flavonoids apigenin, chrysin, naringenin and silybin, inhibited SFV entry | 22.4% | 14.1% | >12.2 | 92.3 µM | IC50 [4, 13]: 71.1 µM; IC50 [4, 14]: 59.8 µM; IC50 [6]: > 200 µM
11 | CCN(CC)c1ccc2cc(-c3nc4ccccc4n3C)c(=O)oc2c1 [Coumarin 30] |  |  | 5.0×10^8 PFU/ml |  |  |  | 12.3% | 44.1% |  |  | IC50 ([1]; ATP assay, 48 h exposure of BHK cells): 92.4 µM; IC50 [2]: 0.4 µM; IC50 ([3]; BHK cells, MOI 0.01, 22 h post-infection, WST-1, 200 µM to 0.1 µM): 5.5 µM; IC50 [10]: 6.4 µM; IC50 ([7]; BHK cells, MOI 0.01, 24 h post-infection, WST-1, 200 µM to 0.1 µM): 11.8 µM
12 | N/C(CC(O)COc1cccc2ccccc12)=N/O (stereo not shown) [Nadoxolol] | > 200 µM | 15.2 µM | 9.2×10^7 PFU/ml | 8.2 µM | 16.4 µM |  | 20.8% | 69.2% | >12.2 |  | 
13 | CCSc1ccc2c(c1)N(CCCN1CCN(C)CC1)c1ccccc1S2 [Thiethylperazine] | 83.1 µM |  |  |  | 15 µM | decreased the Rluc activity | 26.5% | 101.1% | 5.5 | 63.8 µM | 
14 | CN(C)CCCN1c2ccccc2Sc2ccc(Cl)cc21 [Chlorpromazine] | 67.3 µM |  |  |  | 15.7 µM | decreased the Rluc activity |  |  |  | 39.4 µM | 
15 | COc1c(C)c2c(c(O)c1C/C=C(\C)CCC(=O)O)C(=O)OC2 [Mycophenolic acid, reference compound] | > 200 µM | 39 µM | 1.2×10^8 PFU/ml | 44.4 µM | ~100 µM |  |  |  | >1.7 |  | IC50 [2]: 121 µM; Change of replicon IC50 with guanosine supplementation [4]: increased by at least two orders of magnitude; IC50 [4, 13]: ~1 µM; IC50 ([4]; read-out: EGFP IC50): 1.5 µM; Decrease of SFV titer versus untreated control [5]: approximately one order of magnitude; IC50 [6]: > 200 µM
16 | C#C[C@]1(O)CC[C@H]2[C@@H]3CCc4cc(O)ccc4[C@H]3CC[C@@]21C [17-Ethinylestradiol] | > 200 µM | 63 µM | 9.0×10^8 PFU/ml | 56.8 µM | 9.5 µM |  |  |  | >21.1 |  | 
17 | OCCN1CCN(CCCN2c3ccccc3C=Cc3ccccc32)CC1 [Opipramol] | > 200 µM | 25 µM | 2.5×10^8 PFU/ml | 31 µM | 19.7 µM |  | 27.5% | 101.5% | >10.2 |  | 
